Like-named read-outs stand apart in the source and are kept apart here.
Key:
HIV-1IIIB = assay: HIV cytoprotection assay, HIV-1IIIB in CEM-SS cells (MTS); format: cell-based; conditions: for IC50: read-out: IC50 (concentration inhibiting virus replication by 50%)
Procedure: (§1) For the HIV cytoprotection assay, CEM-SS cells were used and the viruses HIV-1IIIb, HIV-1RF, or HIV-2ROD.
(§2) Briefly, virus and cells were mixed in the presence of a test compounds and incubated for 6 days. […] Each assay plate contained the following controls: cell control wells (cells only), virus control wells (cells plus virus), compound toxicity control wells (cells plus compound only), compound calorimetric control wells (compound only), as well as the experimental wells (compound plus cells plus virus). Cytoprotection and compound cytotoxicity were assessed by MTS (CellTiter® 96 Reagent, Promega, Madison Wis.) dye reduction, and the IC50 (concentration inhibiting virus replication by 50%), TC50 (concentration resulting in 50% cell death) and a calculated TI (therapeutic index TC50/IC50) were obtained. Each assay included the HIV reverse transcriptase inhibitor AZT as a positive control.

GST tagged hPOSH = molecular target: T1, GST tagged hPOSH (Homo sapiens, UniProt Q7Z6J0); assay: HTS TR-FRET assay of POSH autoubiquitination; format: biochemical; conditions: GST tagged hPOSH with E1, UbCH5c, ubiquitin-cryptate, read-out: IC50 (POSH autoubiquitination, in vitro assay)
T1 construct: a fused GST-RING subunit of POSH protein
T1 sequence (Q7Z6J0 12-53 limits assumed): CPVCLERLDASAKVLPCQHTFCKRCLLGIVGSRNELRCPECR
Procedure: In order to test compounds as inhibitors of POSH, a ubiquitin protein ligase (E3) containing a RING domain that mediates its own ubiquitination in a RING finger-dependent manner in the presence of E1 and E2, a HTS (high-throughput screening) homogeneous TR-FRET (Time-Resolved Fluorescence Resonance Energy Transfer) assay was conducted to monitor POSH autoubiquitination.
The assay employs an ubiquitin-activating enzyme (E1) and an ubiquitin-conjugating enzyme (E2), a fused GST-RING subunit of POSH protein and two fluorophore-conjugated detection reagents, namely anti-GSTXL665 and europium cryptate-labeled ubiquitin. This homogeneous assay is based on FRET between a Eu^3+ cryptate donor and a second fluorescent label (acceptor), allophycocyanin. Allophycocyanin, a 105 kDa phycobiliprotein, is crosslinked to ensure its stability.
The ubiquitination of POSH by ubiquitin cryptate and binding of the anti-GST tagged XL665 brings the fluorophores into close proximity allowing FRET reaction to occur.
Self-ubiquitination of hPOSH was determined by homogenous time-resolved fluorescence resonance energy transfer assay (TR-FRET). […]
where: S=actual fluorescence, B=Fluorescence obtained in parallel incubation without […], C=Fluorescence obtained in reaction without added compounds. […]

[1] = tested on: HIV-1 p24 release from Jurkat cells; assay: Assay for virus release (HIV-1 p24 / VLP release from transfected Jurkat cells); format: cell-based; conditions: Human immunodeficiency virus 1, Jurkat, 24 h, read-out: IC50 in the virus release assay
Procedure: The POSH inhibitor Compound 1 was tested for its efficiency of viral budding and GAG expression and processing in treated and untreated Jurkat cells. The concentration of extracellular GAG p24 was used as an indication of viral budding.
Jurkat cells were incubated with Compound 1 (5 μM) for either 1 or 3 days. The next day, cells were transfected with the plasmid pNLenyl (2 μg/ml). Virus-like particle (VLP) release was determined one day after transfection as follows: the culture medium of virus-expressing cells was collected and centrifuged at 500×g for 10 minutes. The resulting supernatant was passed through a 0.45 μm-pore filter and the filtrate was centrifuged at 14,000×g for 2 hours at 4° C. The corresponding cells were washed three times with phosphate-buffered saline (PBS) and then solubilized by incubation on ice for 15 minutes in lysis buffer containing the following components: […] Hepes-NaOH, (pH 7.5), 150 mM NaCl, 1.5 mM MgCl2, 0.3% NP-40, 0.5% sodium deoxycholate, 1 mM EDTA, 1 mM EGTA and 1:200 dilution of protease inhibitor cocktail (EMD Biosciences, Inc.). The cell detergent extract was then centrifuged for 15 minutes at 14,000×g at 4° C. […] Enhanced Chemi-Luminescence (ECL) (Amersham Biosciences, Corp.) was then detected by fluorescence imaging (Typhoon Instrument, Amersham Biosciences, Corp.).

HIV-2ROD = assay: HIV cytoprotection assay, HIV-2ROD in CEM-SS cells (MTS); format: cell-based; conditions: for IC50: read-out: IC50 (concentration inhibiting virus replication by 50%)
Procedure: as §1, §2

[2] = Compound cytotoxicity in CEM-SS cells (MTS); format: cell-based; conditions: human, read-out: TC50 (concentration resulting in 50% cell death)
Procedure: as §1, §2

[3] = Human immunodeficiency virus 1, 144 h, HIV-1IIIB, CEM-SS cells, 6 days

Structure (SMILES)	Antiviral Index (TI), TC50/IC50 (HIV-1IIIB; HIV-1IIIB, CEM-SS cells)	IC50 (HIV-1IIIB; Human immunodeficiency virus 1, CEM-SS, 144 h)	IC50 (GST tagged hPOSH)	IC50 [1]	Antiviral Index (TI), TC50/IC50 (HIV-2ROD; HIV-2ROD, CEM-SS cells)	IC50 (HIV-2ROD; Human immunodeficiency virus 2, CEM-SS, 144 h)	CC50 at 6 days ([2]; Table 1 (HIV-1IIIB experiment))	CC50 at 6 days ([2]; Table 2 (HIV-2ROD experiment))	Effectiveness as anti-HIV-1IIIB agent compared to Compounds 1 and 2 (HIV-1IIIB; HIV-1IIIB, CEM-SS cells)	IC50 (HIV-1IIIB; [3])	IC50 (HIV-2ROD; Human immunodeficiency virus 2, 144 h, HIV-2ROD, CEM-SS cells, 6 days)
Cc1cc(C)nc(NS(=O)(=O)c2ccc(NC(=O)/C(=C\c3cccs3)NC(=O)c3cccs3)cc2)n1 [Compound 1]	>2.07	48 µM	2 µM	48 µM	>5.68	52.8 µM	> 100 µM	> 300 µM	–	–	–
Cc1ccnc(NS(=O)(=O)c2ccc3c(c2)CCN3C(=O)/C(=C\c2cccs2)NC(=O)c2cccs2)n1 [Compound 5]	>105	–	–	–	–	–	> 300 µM	–	far more effective	2.85 µM	–
O=C(Nc1ccc(S(=O)(=O)Nc2ncccn2)cc1)/C(=C\c1cccs1)NC(=O)c1cccs1 [Compound 2]	28.5	–	–	–	>10.2	–	114 µM	> 300 µM	–	3.99 µM	29.5 µM

Reference: patent US8283355B2, “Pyrimidine derivatives as POSH and POSH-AP inhibitors” (Proteologics, Ltd., priority 2006, dated 2012)
